Patent US10226448B2, “3-(1H-pyrrolo[3,2-C]pyridin-2-yl)-1H-pyrazolo[3,4-B]pyridines and therapeutic uses thereof” (Samumed, LLC, priority 2015, dated 2019)

How the values were obtained:
Format in all cases: cell-based
IL-6 in THP-1 cells = test: IL-6 inhibition in LPS-stimulated THP-1 human monocyte cells (HTRF); details: for EC50: IL-6 inhibition, LPS-stimulated THP-1 cells, HTRF, 10-point dose-response starting from 10 μM; for inhibition at 10 µM: THP-1, read-out: percentage in parentheses beside EC50 >10
Experimental: Compound Screening: THP-1 cells were cultured in basal media with 1% FBS for 24 hours before the start of the assay. […] THP-1 cells were plated at 5000 cells/well in the 384-well plates and incubated at 37° C. for 2 h. 500 ng/mL of LPS was added after 2 hours and cells were incubated for another 22 hours at 37° C. Plates were spun in a centrifuge for 1 minute at […] and a mixture of anti-IL6 XL665, and anti-IL6 Cryptate diluted in reconstitution buffer (Cisbio Inc.) was added to each well. Following incubation for 3 hrs at room temperature, Homogeneous Time-Resolved Fluorescence (HTRF) was measured using the Envision (Perkin Elmer) at 665 nm and […]. The ratio of fluorescence at 665 nm to 620 nm was used as a readout for IL6 quantification. All samples were processed in duplicate. Readings were normalized to DMSO treated cells and normalized activities were utilized for EC50 calculations using the dose-response log (inhibitor) vs. response variable slope (four parameters) nonlinear regression feature available in GraphPad Prism 5.0 (or Dotmatics).

[1] = system: LL29 cells (primary human fibroblasts derived from IPF patients), α-smooth muscle actin; test: Inhibition of the fibrotic process: αSMA staining in TGF-β1 treated primary human fibroblasts from IPF patients (LL29 cells); details: Fibroblast; for EC50: 96 h, LL29 cells, TGF-β1 20 ng/mL, 4 days, % αSMA positive cells; for inhibition at 10 µM: read-out: percent inhibition at 10 μM
Experimental: Representative compounds were screened using primary human fibroblasts (derived from IPF patients) treated with TGF-β1 to determine their ability to inhibit the fibrotic process.
LL29 cells are plated at 1,500 cells/well in 80 μL/well F12 medium supplemented with 1% Fetal Bovine Serum. […] Wells treated with TGF-β1 and containing DMSO were used as controls. […] Following incubation for 4 days, SYTOX green nucleic acid stain (Life Technologies [Thermo Fisher Scientific]) was added to the wells at a final concentration of 1 μM and incubated at room temperature for 30 min.

[2] = system: Wnt activity (Sp5-Luc reporter, TCF/LEF binding sites) in SW480 colon carcinoma cells; test: Wnt activity screening assay: Sp5-Luc reporter gene assay in SW480 cells; details: Homo sapiens; for inhibition at 10 µM: SW480, read-out: percent inhibition at 10 μM; for EC50: Sp5-Luc reporter, SW480 cells, overnight incubation
Description: The screening assay for Wnt activity is described as follows. Reporter cell lines can be generated by stably transducing cancer cell lines (e.g., colon cancer) or primary cells (e.g., IEC-6 intestinal cells) with a lentiviral construct that includes a Wnt-responsive promoter driving expression of the firefly luciferase gene.
SW480 colon carcinoma cells were transduced with a lentiviral vector expressing luciferase with a human Sp5 promoter consisting of a sequence of eight TCF/LEF binding sites. SW480 cells stably expressing the Sp5-Luc reporter gene and a hygromycin resistance gene were selected by treatment with 150 μg/mL of hygromycin for 7 days. These stably transduced SW480 cells were expanded in cell culture and used for all further screening activities. […] For Sp5-Luc reporter gene assays, the cells were plated at 4,000 cells/well in 384-well plates with medium containing 1% fetal bovine serum and incubated overnight at 37° C. and 5% CO2. Following incubation, 20 μl of BrightGlo luminescence reagent (Promega) was added to each well of the 384-well assay plates. The plates were placed on an orbital shaker for 2 min and then luminescence was quantified using the Envision (Perkin Elmer) plate reader. Readings were normalized to DMSO only treated cells, and normalized activities were utilized for EC50 calculations using the dose-response log (inhibitor) vs. response variable slope (four parameters) nonlinear regression feature available in GraphPad Prism 5.0 (or Dotmatics).

SW480 colon cancer cells = test: Cell viability assay (CellTiter-Blue) in SW480 colon cancer cells; details: Homo sapiens; for EC50: 96 h, SW480 cell viability, four days, CellTiter-Blue; for inhibition at 10 µM: SW480, read-out: percent inhibition at 10 μM
Experimental: Representative compounds were screened using the following assay procedure to assess the effect on cell viability as described below.
Approximately 2×10^3 SW480 colon cancer cells were seeded into each well and allowed to incubate in the presence or absence of compound for four days at 37° C./5% CO2. Eight replicates of DMSO-treated cells served as controls and cells treated with compound were performed in duplicate.
After incubation, 20 μL of CellTiter-Blue (Promega) was added to each well allowed to incubate for approximately 3 hours. This reagent was a buffered solution which contains resazurin, metabolically active cells were able to reduce rezarurin (blue) into resorufin (pink) which was highly fluorescent. This measured fluorescence was used as a readout for cell viability.

Compound	EC50 (IL-6 in THP-1 cells) [µM]	inhibition at 10 µM (IL-6 in THP-1 cells) [%]	EC50 [1] [µM]	inhibition at 10 µM [2] [%]	EC50 [2] [µM]	EC50 (SW480 colon cancer cells) [µM]	inhibition at 10 µM (SW480 colon cancer cells) [%]	inhibition at 10 µM [1] [%]
CN(C)Cc1cncc(-c2cnc3[nH]nc(-c4cc5c(N6CCCCC6)nccc5[nH]4)c3c2)c1 [Compound 181, N,N-Dimethyl-1-(5-(3-(4-(piperidin-1-yl)-1H-pyrrolo[3,2-c]pyridin-2-yl)-1H-pyrazolo[3,4-b]pyridin-5-yl)pyridin-3-yl)methanamine]	> 10	41.5	9.71	20.3	> 10	7.76		
FC1(F)CCN(Cc2cncc(-c3cnc4[nH]nc(-c5cc6c(-c7ccoc7)nccc6[nH]5)c4c3)c2)C1 [Compound 334, 5-(5-((3,3-Difluoropyrrolidin-1-yl)methyl)pyridin-3-yl)-3-(4-(furan-3-yl)-1H-pyrrolo[3,2-c]pyridin-2-yl)-1H-pyrazolo[3,4-b]pyridine]	0.102		0.912		0.199	0.369		
FC1(F)CCN(Cc2cncc(-c3cnc4[nH]nc(-c5cc6c(-c7ccncc7)nccc6[nH]5)c4c3)c2)C1 [Compound 138, 5-(5-((3,3-Difluoropyrrolidin-1-yl)methyl)pyridin-3-yl)-3-(4-(pyridin-4-yl)-1H-pyrrolo[3,2-c]pyridin-2-yl)-1H-pyrazolo[3,4-b]pyridine]	3.63		2.22		1.15	> 10	14.3	
Fc1cccc(-c2nccc3[nH]c(-c4n[nH]c5ncc(C6CCNCC6)cc45)cc23)c1 [Compound 505, 3-(4-(3-Fluorophenyl)-1H-pyrrolo[3,2-c]pyridin-2-yl)-5-(piperidin-4-yl)-1H-pyrazolo[3,4-b]pyridine]	3.45		5.55		3.85	4.47		
CN1CCN(c2nccc3[nH]c(-c4n[nH]c5ncc(-c6cncc(NC(=O)CC7CCNCC7)c6)cc45)cc23)CC1 [Compound 641, N-(5-(3-(4-(4-Methylpiperazin-1-yl)-1H-pyrrolo[3,2-c]pyridin-2-yl)-1H-pyrazolo[3,4-b]pyridin-5-yl)pyridin-3-yl)-2-(piperidin-4-yl)acetamide]	> 10	7.6	> 10	0	> 10	> 10	6.5	0
CN1CCN(c2nccc3[nH]c(-c4n[nH]c5ncc(-c6cncnc6)cc45)cc23)CC1 [Compound 251, 3-(4-(4-Methylpiperazin-1-yl)-1H-pyrrolo[3,2-c]pyridin-2-yl)-5-(pyrimidin-5-yl)-1H-pyrazolo[3,4-b]pyridine]	> 10	35.7	> 10	17.8	> 10	> 10	8.3	24.7
CN1CCN(c2nccc3[nH]c(-c4n[nH]c5ncc(-c6cncc(CN7CCC(F)(F)C7)c6)cc45)cc23)CC1 [Compound 250, 5-(5-((3,3-Difluoropyrrolidin-1-yl)methyl)pyridin-3-yl)-3-(4-(4-methylpiperazin-1-yl)-1H-pyrrolo[3,2-c]pyridin-2-yl)-1H-pyrazolo[3,4-b]pyridine]	0.4		4.94		3.65	3.15		
Cc1ccncc1-c1cnc2[nH]nc(-c3cc4c(-c5ccc(F)cc5)nccc4[nH]3)c2c1 [Compound 33, 3-(4-(4-Fluorophenyl)-1H-pyrrolo[3,2-c]pyridin-2-yl)-5-(4-methylpyridin-3-yl)-1H-pyrazolo[3,4-b]pyridine]	> 10	16.4	0.553	46.5	> 10	1.5		
CS(=O)(=O)NCc1cc(F)cc(-c2nccc3[nH]c(-c4n[nH]c5ncc(-c6cncc(CNCc7ccccc7)c6)cc45)cc23)c1 [Compound 500, N-(3-(2-(5-(5-((Benzylamino)methyl)pyridin-3-yl)-1H-pyrazolo[3,4-b]pyridin-3-yl)-1H-pyrrolo[3,2-c]pyridin-4-yl)-5-fluorobenzyl)methanesulfonamide]	> 10	31.3	> 10	19.1	> 10	> 10	23.4	18.3
CC(C)(C)CC(=O)Nc1cncc(-c2cnc3[nH]nc(-c4cc5c(-c6ccc(F)cc6)nccc5[nH]4)c3c2)c1 [Compound 44, N-(5-(3-(4-(4-Fluorophenyl)-1H-pyrrolo[3,2-c]pyridin-2-yl)-1H-pyrazolo[3,4-b]pyridin-5-yl)pyridin-3-yl)-3,3-dimethylbutanamide]	2.04		0.315		0.986	0.7		
Oc1cncc(-c2cnc3[nH]nc(-c4cc5c(-c6cccs6)nccc5[nH]4)c3c2)c1 [Compound 709, 5-(3-(4-(Thiophen-2-yl)-1H-pyrrolo[3,2-c]pyridin-2-yl)-1H-pyrazolo[3,4-b]pyridin-5-yl)pyridin-3-ol]	> 10	48.9	0.289		0.768	2.48		
Fc1cccc(-c2nccc3[nH]c(-c4n[nH]c5ncc(-c6cncc(CN7CCCCC7)c6)cc45)cc23)c1 [Compound 15, 3-(4-(3-Fluorophenyl)-1H-pyrrolo[3,2-c]pyridin-2-yl)-5-(5-(piperidin-1-ylmethyl)pyridin-3-yl)-1H-pyrazolo[3,4-b]pyridine]	4.78		0.66		1.82	0.856		
c1ccc(-c2cnc3[nH]nc(-c4cc5cnccc5[nH]4)c3c2)nc1 [Compound 280, 5-(Pyridin-2-yl)-3-(1H-pyrrolo[3,2-c]pyridin-2-yl)-1H-pyrazolo[3,4-b]pyridine]	3.69		3.87		3.13	1.14		
c1cc2[nH]c(-c3n[nH]c4ncc(-c5cncc(CN6CCCC6)c5)cc34)cc2c(-c2ccoc2)n1 [Compound 322, 3-(4-(Furan-3-yl)-1H-pyrrolo[3,2-c]pyridin-2-yl)-5-(5-(pyrrolidin-1-ylmethyl)pyridin-3-yl)-1H-pyrazolo[3,4-b]pyridine]	> 10	29.4	2.21		4.05	2.34		
Fc1cccc(-c2nccc3[nH]c(-c4n[nH]c5ncc(-c6ccncc6)cc45)cc23)c1 [Compound 18, 3-(4-(3-Fluorophenyl)-1H-pyrrolo[3,2-c]pyridin-2-yl)-5-(pyridin-4-yl)-1H-pyrazolo[3,4-b]pyridine]	> 10	0	0.542	22.6	> 10	0.738		
c1cc2[nH]c(-c3n[nH]c4ncc(-c5cncc(OC6CCCCC6)c5)cc34)cc2c(N2CCCCC2)n1 [Compound 607, 5-(5-(Cyclohexyloxy)pyridin-3-yl)-3-(4-(piperidin-1-yl)-1H-pyrrolo[3,2-c]pyridin-2-yl)-1H-pyrazolo[3,4-b]pyridine]	7.28		1.99		3.98	3.54		
